{"source": "patent US20260295053A1", "about": "“COMPOUNDS FOR DEGRADATION AND INHIBITION OF KRAS (G12D) PROTEIN” (Shenzhen Ionova Life Science Co., Ltd., priority 2023, published 2026)", "key": {"AsPC-1 cells": {"tested_on": "AsPC-1 cells", "assay": "AsPC-1 cell proliferation assay (CellTiter Glo)", "assay_type": "cell-based", "conditions": "6 days", "in_short": "(§1)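 AsPC-1 cells: for degradation, grown to ~90% confluency, treated 24 h with 1:3 compound series ([…] to 1.5 nM), then fixed and immunostained for KRAS G12D and β-actin, read by infrared fluorescence, DC50 fitted. Proliferation: 3,500 cells/well, 6-day treatment, CellTiter Glo luminescence, IC50 fitted.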"}, "KRAS (G12D)": {"target": "T1, KRAS (G12D) (Homo sapiens, UniProt P01116, G12D)", "T1 construct": "in-cell western with KRAS G12D antibody after 24 h", "T1 sequence (P01116 1-188 isoform P01116-2 G12D)": "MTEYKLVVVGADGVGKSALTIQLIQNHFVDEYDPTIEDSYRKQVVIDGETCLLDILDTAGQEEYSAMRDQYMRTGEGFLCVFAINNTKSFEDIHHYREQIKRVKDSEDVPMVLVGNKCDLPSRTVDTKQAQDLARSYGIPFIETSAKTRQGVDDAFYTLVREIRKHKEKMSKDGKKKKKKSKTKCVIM", "assay": "KRAS (G12D) cellular degradation assay in AsPC-1 cells", "assay_type": "cell-based", "conditions": "24 hours, antibody fluorescence (Odyssey CLX), DC50 half-maximal degradation concentration", "in_short": "as §1"}}, "data": [{"compound": "Cc1ncsc1-c1ccc([C@@H](NC(=O)[C@@H]2C[C@@H](O)CN2C(=O)[C@H](C(C)C)n2cc(-c3ccc(COc4c(-c5c(C)c(F)cc6[nH]ncc56)c(C5CC5)cc5c(N6C[C@@H]7C[C@H]6CN7)nc(OC6CC7COCC7C6)nc45)cc3)nn2)[C@H](C)O)cc1", "note": "(stereo partly drawn) [Example 132, (2S,4R)-1-((2S)-2-(4-(4-(((4-((1S,4S)-2,5-diazabicyclo[2.2.1]heptan-2-yl)-6-cyclopropyl-7-(6-fluoro-5-methyl-1H-indazol-4-yl)-2-((hexahydro-1H-cyclopenta[c]furan-5-yl)oxy)quinazolin-8-yl)oxy)methyl)phenyl)-1H-1,2,3-triazol-1-yl)-3-methylbutanoyl)-4-hydroxy-N-((1R,2S)-2-hydroxy-1-(4-(4-methylthiazol-5-yl)phenyl)propyl)pyrrolidine-2-carboxamide]", "values": [{"measurement": "IC50", "setting": "AsPC-1 cells; Homo sapiens, ASPC1, 144 h", "value": "< 10", "unit": "nM"}, {"measurement": "DC50", "setting": "KRAS (G12D)", "value": "< 10", "unit": "nM"}]}, {"compound": "CO[C@@H](C)COc1nc(N2C[C@@H]3C[C@H]2CN3)c2cc(C3CC3)c(-c3c(C)c(F)cc4[nH]ncc34)c(OCc3ccc(-c4cn([C@H](C(=O)N5C[C@H](O)C[C@H]5C(=O)N[C@H](C#Cc5cccc6[nH]ncc56)CO)C(C)C)nn4)cc3)c2n1", "note": "[Example 133, (2S,4R)-1-((2S)-2-(4-(4-(((4-((1S,4S)-2,5-diazabicyclo[2.2.1]heptan-2-yl)-6-cyclopropyl-7-(6-fluoro-5-methyl-1H-indazol-4-yl)-2-((S)-2-methoxypropoxy)quinazolin-8-yl)oxy)methyl)phenyl)-1H-1,2,3-triazol-1-yl)-3-methylbutanoyl)-4-hydroxy-N—((R)-1-hydroxy-4-(1H-indazol-4-yl)but-3-yn-2-yl)pyrrolidine-2-carboxamide]", "values": [{"measurement": "IC50", "setting": "AsPC-1 cells; Homo sapiens, ASPC1, 144 h", "value": "< 10", "unit": "nM"}, {"measurement": "DC50", "setting": "KRAS (G12D)", "value": "< 10", "unit": "nM"}]}, {"compound": "CO[C@H]1C[C@@H](Oc2nc(N3C[C@@H]4C[C@H]3CN4)c3cc(C4CC4)c(-c4c(C)c(F)cc5[nH]ncc45)c(OCc4ccc(-c5cn([C@H](C(=O)N6C[C@H](O)C[C@H]6C(=O)N[C@H](c6ccc(-c7scnc7C)cc6)[C@H](C)O)C(C)C)nn5)cc4)c3n2)C1", "note": "[Example 135, (2S,4R)-1-((2S)-2-(4-(4-(((4-((1S,4S)-2,5-diazabicyclo[2.2.1]heptan-2-yl)-6-cyclopropyl-7-(6-fluoro-5-methyl-1H-indazol-4-yl)-2-((1s,3R)-3-methoxycyclobutoxy)quinazolin-8-yl)oxy)methyl)phenyl)-1H-1,2,3-triazol-1-yl)-3-methylbutanoyl)-4-hydroxy-N-((1R,2S)-2-hydroxy-1-(4-(4-methylthiazol-5-yl)phenyl)propyl)purrolidine-2-carboxcamide]", "values": [{"measurement": "IC50", "setting": "AsPC-1 cells; Homo sapiens, ASPC1, 144 h", "value": "< 10", "unit": "nM"}, {"measurement": "DC50", "setting": "KRAS (G12D)", "value": "< 10", "unit": "nM"}]}, {"compound": "CCn1nccc1-c1ccc([C@@H](NC(=O)[C@@H]2C[C@@H](O)CN2C(=O)[C@H](C(C)C)n2cc(-c3ccc(COc4c(-c5c(C)c(F)cc6[nH]ncc56)c(C5CCC5)cc5c(N6C[C@@H]7C[C@H]6CN7)nc(O[C@H]6C[C@H](OC)C6)nc45)cc3)nn2)[C@H](C)O)cc1", "note": "[Example 136, (2S,4R)-1-((2S)-2-(4-(4-(((4-((1S,4S)-2,5-diazabicyclo[2.2.1]heptan-2-yl)-6-cyclobutyl-7-(6-fluoro-5-methyl-1H-indazol-4-yl)-2-((1r,3S)-3-methoxycyclobutoxy)quinazolin-8-yl)oxy)methyl)phenyl)-1H-1,2,3-triazol-1-yl)-3-methylbutanoyl)-N-((1R,2S)-1-(4-(1-ethyl-1H-pyrazol-5-yl)phenyl)-2-hydroxypropyl)-4-hydroxypyrrolidine-2-carboxamide]", "values": [{"measurement": "IC50", "setting": "AsPC-1 cells; Homo sapiens, ASPC1, 144 h", "value": "< 10", "unit": "nM"}, {"measurement": "DC50", "setting": "KRAS (G12D)", "value": "< 10", "unit": "nM"}]}, {"compound": "Cc1ncsc1-c1ccc([C@@H](NC(=O)[C@@H]2C[C@@H](O)CN2C(=O)[C@H](C(C)C)n2cc(-c3ccc(COc4c(-c5c(C)c(F)cc6[nH]ncc56)c(C5CC5)cc5c(N6C[C@@H]7C[C@H]6CN7)nc(OC6CCOCC6)nc45)cc3)nn2)[C@@H](O)C2CC2)cc1", "note": "[Example 138, (2S,4R)-1-((2S)-2-(4-(4-(((4-((1S,4S)-2,5-diazabicyclo[2.2.1]heptan-2-yl)-6-cyclopropyl-7-(6-fluoro-5-methyl-1H-indazol-4-yl)-2-((tetrahydro-2H-pyran-4-yl)oxy)quinazolin-8-yl)oxy)methyl)phenyl)-1H-1,2,3-triazol-1-yl)-3-methylbutanoyl)-N-((1R,2S)-2-cyclopropyl-2-hydroxy-1-(4-(4-methylthiazol-5-yl)phenyl)ethyl)-4-hydroxypyrrolidine-2-carboxamide]", "values": [{"measurement": "IC50", "setting": "AsPC-1 cells; Homo sapiens, ASPC1, 144 h", "value": "< 10", "unit": "nM"}, {"measurement": "DC50", "setting": "KRAS (G12D)", "value": "< 10", "unit": "nM"}]}, {"compound": "CC[C@H](O)[C@H](NC(=O)[C@@H]1C[C@@H](O)CN1C(=O)[C@H](C(C)C)n1cc(-c2ccc(COc3c(-c4c(C)c(F)cc5[nH]ncc45)c(C4CC4)cc4c(N5C[C@@H]6C[C@H]5CN6)nc(OC5CCOCC5)nc34)cc2)nn1)c1ccc(-c2scnc2C)cc1", "note": "[Example 139, (2S,4R)-1-((2S)-2-(4-(4-(((4-((1S,4S)-2,5-diazabicyclo[2.2.1]heptan-2-yl)-6-cyclopropyl-7-(6-fluoro-5-methyl-1H-indazol-4-yl)-2-((tetrahydro-2H-pyran-4-yl)oxy)quinazolin-8-yl)oxy)methyl)phenyl)-1H-1,2,3-triazol-1-yl)-3-methylbutanoyl)-4-hydroxy-N-((1R,2S)-2-hydroxy-1-(4-(4-methylthiazol-5-yl)phenyl)butyl)pyrrolidine-2-carboxamide]", "values": [{"measurement": "IC50", "setting": "AsPC-1 cells; Homo sapiens, ASPC1, 144 h", "value": "< 10", "unit": "nM"}, {"measurement": "DC50", "setting": "KRAS (G12D)", "value": "< 10", "unit": "nM"}]}, {"compound": "CO[C@@H](C)COc1nc(N(C)[C@H]2CCNC2)c2cc(C3CC3)c(-c3c(C)c(F)cc4[nH]ncc34)c(OCc3ccc(-c4cn([C@H](C(=O)N5C[C@H](O)C[C@H]5C(=O)N[C@H](c5ccc(-c6scnc6C)cc5)[C@H](C)O)C(C)C)nn4)cc3)c2n1", "note": "[Example 143, (2S,4R)-1-((2S)-2-(4-(4-(((6-cyclopropyl-7-(6-fluoro-5-methyl-1H-indazol-4-yl)-2-((S)-2-methoxypropoxy)-4-(methyl((S)-pyrrolidin-3-yl)amino)quinazolin-8-yl)oxy)methyl)phenyl)-1H-1,2,3-triazol-1-yl)-3-methylbutanoyl)-4-hydroxy-N-((1R,2S)-2-hydroxy-1-(4-(4-methylthiazol-5-yl)phenyl)propyl)pyrrolidine-2-carboxamide]", "values": [{"measurement": "IC50", "setting": "AsPC-1 cells", "value": "< 10", "unit": "nM"}, {"measurement": "DC50", "setting": "KRAS (G12D)", "value": "< 10", "unit": "nM"}]}, {"compound": "CO[C@@H](C)COc1nc(N(C)[C@H]2CCNC2)c2cc(C3CC3)c(-c3c(C)c(F)cc4[nH]ncc34)c(OCc3ccc(-c4cn([C@H](C(=O)N5C[C@H](O)C[C@H]5C(=O)N[C@H](c5ccc(-c6scnc6C)cc5)[C@H](C)O)C(C)C)nn4)cc3)c2n1", "note": "[Example 144, (2S,4R)-1-((2S)-2-(4-(4-(((6-cyclopropyl-7-(6-fluoro-5-methyl-1H-indazol-4-yl)-2-((S)-2-methoxypropoxy)-4-(methyl((S)-pyrrolidin-3-yl)amino)quinazolin-8-yl)oxy)methyl)phenyl)-1H-1,2,3-triazol-1-yl)-3-methylbutanoyl)-4-hydroxy-N-((1R,2S)-2-hydroxy-1-(4-(4-methylthiazol-5-yl)phenyl)propyl)pyrrolidine-2-carboxamide]", "values": [{"measurement": "IC50", "setting": "AsPC-1 cells", "value": "> 1000", "unit": "nM"}, {"measurement": "DC50", "setting": "KRAS (G12D)", "value": "> 1000", "unit": "nM"}]}, {"compound": "CCn1nccc1-c1ccc([C@@H](NC(=O)[C@@H]2C[C@@H](O)CN2C(=O)[C@H](C(C)C)n2cc(-c3ccc(COc4c(-c5c(C)c(F)cc6[nH]ncc56)c(C5CC5)cc5c(N6C[C@@H]7C[C@H]6CN7)nc(O[C@H]6C[C@H](OC)C6)nc45)cc3)nn2)[C@H](C)O)c2c1CC2", "note": "[Example 147, (2S,4R)-1-((2S)-2-(4-(4-(((4-((1S,4S)-2,5-diazabicyclo[2.2.1]heptan-2-yl)-6-cyclopropyl-7-(6-fluoro-5-methyl-1H-indazol-4-yl)-2-((1r,3S)-3-methoxycyclobutoxy)quinazolin-8-yl)oxy)methyl)phenyl)-1H-1,2,3-triazol-1-yl)-3-methylbutanoyl)-N-((1R,2S)-1-(5-(1-ethyl-1H-pyrazol-5-yl)bicyclo[4.2.0]octa-1(6),2,4-trien-2-yl)-2-hydroxypropyl)-4-hydroxypyrrolidine-2-carboxamide]", "values": [{"measurement": "IC50", "setting": "AsPC-1 cells; Homo sapiens, ASPC1, 144 h", "value": "< 10", "unit": "nM"}, {"measurement": "DC50", "setting": "KRAS (G12D)", "value": "< 10", "unit": "nM"}]}, {"compound": "CO[C@@H](C)COc1nc(N2C[C@@H]3C[C@H]2CN3)c2cc(C3CC3)c(-c3c(C)c(F)cc4[nH]ncc34)c(OCc3ccc(-c4cn([C@H](C(=O)N5C[C@H](O)C[C@H]5C(=O)N[C@H](c5ccc(S(F)(F)(F)(F)F)cc5)[C@H](C)O)C(C)C)nn4)cc3)c2n1", "note": "[Example 148, (2S,4R)-1-((2S)-2-(4-(4-(((4-((1S,4S)-2,5-diazabicyclo[2.2.1]heptan-2-yl)-6-cyclopropyl-7-(6-fluoro-5-methyl-1H-indazol-4-yl)-2-((S)-2-methoxypropoxy)quinazolin-8-yl)oxy)methyl)phenyl)-1H-1,2,3-triazol-1-yl)-3-methylbutanoyl)-4-hydroxy-N-((1R,2S)-2-hydroxy-1-(4-(pentafluoro-I6-sulfaneyl)phenyl)propyl)pyrrolidine-2-carboxamide]", "values": [{"measurement": "IC50", "setting": "AsPC-1 cells; Homo sapiens, ASPC1, 144 h", "value": "> 1000", "unit": "nM"}, {"measurement": "DC50", "setting": "KRAS (G12D)", "value": "> 1000", "unit": "nM"}]}, {"compound": "CCn1nccc1-c1ccc([C@@H](NC(=O)[C@@H]2C[C@@H](O)CN2C(=O)[C@H](C(C)C)n2cc(-c3ccc(COc4c(-c5c(C)c(F)cc6[nH]ncc56)c(C5CC5)cc5c(N(C)[C@H]6CCNC6)nc(OC[C@H](C)OC)nc45)cc3)nn2)[C@H](C)O)c2c1CC2", "note": "[Example 149, (2S,4R)-1-((2S)-2-(4-(4-(((6-cyclopropyl-7-(6-fluoro-5-methyl-1H-indazol-4-yl)-2-((S)-2-methoxypropoxy)-4-(methyl((S)-pyrrolidin-3-yl)amino)quinazolin-8-yl)oxy)methyl)phenyl)-1H-1,2,3-triazol-1-yl)-3-methylbutanoyl)-N-((1R,2S)-1-(5-(1-ethyl-1H-pyrazol-5-yl)bicyclo[4.2.0]octa-1(6),2,4-trien-2-yl)-2-hydroxypropyl)-4-hydroxypyrrolidine-2-carboxamide]", "values": [{"measurement": "IC50", "setting": "AsPC-1 cells; Homo sapiens, ASPC1, 144 h", "value": "< 10", "unit": "nM"}, {"measurement": "DC50", "setting": "KRAS (G12D)", "value": "< 10", "unit": "nM"}]}]}
